Reference: article PMC8696196 (RSC Advances, 2021)

Biological target: H3N2 E119V (A/Moscow/10/99 background, E119V mutation in the neuraminidase gene)
Assay type: cell-based, influenza A virus
Settings: read-out: EC50 H3N2 E119V

SMILES	EC50 [µM]
CCC(CC)O[C@@H]1C=C(C(=O)O)C[C@H](n2nncc2-c2cccc(N)c2)[C@H]1NC(C)=O [Compound 2j, (3R,4R,5S)-4-Acetamido-5-[5-(3-aminophenyl)-1H-1,2,3-triazol-1-yl]-3-(pentan-3-yloxy)cyclohex-1-ene-1-carboxylic acid]	> 100
CCC(CC)O[C@@H]1C=C(C(=O)O)C[C@H](N)[C@H]1NC(C)=O [OSC, oseltamivir carboxylate, reference compound]	> 100
